18 compounds from patent publication US20100184851A1, “INHIBITION OF CELL PROLIFERATION” (priority 2008, published 2010) can be followed below.

Molecules are shown by their SMILES. Where a name gives a salt, the structure may show the parent alone.

One data set addresses T1, Rb:Raf-1 binding (Homo sapiens, UniProt P06400).
T1 construct: a glutathione S-transferase (GST) Raf-1 (1-149aa) overnight at 4° C; made in house
T1 sequence (P06400 1-928): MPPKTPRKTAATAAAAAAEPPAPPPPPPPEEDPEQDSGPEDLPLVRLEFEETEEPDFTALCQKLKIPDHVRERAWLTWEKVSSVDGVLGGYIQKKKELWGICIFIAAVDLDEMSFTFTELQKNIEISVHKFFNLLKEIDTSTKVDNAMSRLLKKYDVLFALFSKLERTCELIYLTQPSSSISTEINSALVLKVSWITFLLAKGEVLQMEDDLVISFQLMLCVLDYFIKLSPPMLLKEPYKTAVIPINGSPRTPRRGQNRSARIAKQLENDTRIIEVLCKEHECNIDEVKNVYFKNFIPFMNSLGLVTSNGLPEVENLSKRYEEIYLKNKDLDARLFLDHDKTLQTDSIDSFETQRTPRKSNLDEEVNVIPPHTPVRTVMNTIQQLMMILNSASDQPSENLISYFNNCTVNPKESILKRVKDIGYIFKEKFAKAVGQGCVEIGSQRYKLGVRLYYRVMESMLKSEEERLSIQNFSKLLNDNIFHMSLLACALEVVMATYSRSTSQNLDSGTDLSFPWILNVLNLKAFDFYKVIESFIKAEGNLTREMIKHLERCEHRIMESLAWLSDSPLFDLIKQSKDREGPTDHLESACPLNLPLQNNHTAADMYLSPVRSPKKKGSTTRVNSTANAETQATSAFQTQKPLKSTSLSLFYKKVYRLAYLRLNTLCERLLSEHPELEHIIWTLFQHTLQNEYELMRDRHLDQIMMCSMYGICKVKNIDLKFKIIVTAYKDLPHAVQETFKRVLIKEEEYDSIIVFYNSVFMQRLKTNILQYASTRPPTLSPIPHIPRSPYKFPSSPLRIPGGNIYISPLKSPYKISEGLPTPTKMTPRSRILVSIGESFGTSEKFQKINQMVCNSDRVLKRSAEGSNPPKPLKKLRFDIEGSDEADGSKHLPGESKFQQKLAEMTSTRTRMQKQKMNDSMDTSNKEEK
In words: GST-Rb/GST-Raf-1 ELISA, inhibition of Rb:Raf-1 binding. As to conditions: at 20 μM; read-out: Inhibition at 10 μM or 20 μM. The procedure:
Cell culture and transfection. The human promyelocytic leukemia cell line U937 was cultured in RPMI (Mediatech, Hernden, Va.) containing 10% fetal bovine serum (FBS; Mediatech). U2-OS, Saos-2, MCF7, PANC1 and MDA-MB-231 cell lines were cultured in Dulbecco modified Eagle Medium (DMEM; Mediatech) containing 10% FBS. A549 cells and A549 shRNA Rb cell lines were maintained in Ham F-12K supplemented with 10% FBS. ShRNA cells lines were maintained in media containing 0.5 μg/mL puromycin. H1650, PC-9 and Aspc1 cell line were cultured in RPMI (Gibco/Invitrogen, Carlsbad, Calif.) containing 10% FBS. PANC1 and CAPAN2 pancreatic cell lines and the A375 Melanoma cell line was grown in DMEM supplemented with 10% FBS. Human aortic endothelial cells (HAECs, Clonetics, San Diego, Calif.) were cultured in endothelial growth medium, supplemented with 5% FBS, according to the manufacturer's instructions. U251MG and U87MG glioma cell lines were maintained in DMEM supplemented with non-essential amino acids, […] β-mercaptoethanol, and 10% FBS. ShRNA cell lines were made by stably transfecting A549 cells with two different shRNA constructs that specifically target Rb obtained from a library. The adenovirus (Ad) constructs Ad-green fluorescent protein (GFP) and Ad-E2F1 were obtained from W. D. Cress. Ad-cyclin D was provided by I. Cozar-Castellano. In vitro library screening assays. Enzyme Linked ImmunoSorbent Assay (ELISA) 96-well plates were coated with 1 μg/mL of a glutathione S-transferase (GST) Raf-1 (1-149aa) overnight at 4° C. […] GST-Rb +/− compounds were then added to the plate and incubated for 90 minutes (min) at 37° C. The amount of Rb bound to Raf-1 was detected by Rb polyclonal antibody (Santa Cruz Biotechnology, Santa Cruz, Calif.) 1:1000 incubated for 60 min at 37° C. Donkey-anti-rabbit-IgG-HRP (1:10,000) was added to the plate and incubated at 37° C. for 60 minutes. The color was developed with orthophenylenediamine (Sigma, St. Louis, Mo.) and the reaction was terminated with 3 molar (M) H2SO4. Absorbance was read at 490 nanometers (nm). To determine disruption of Rb to E2F1, Phb, or HDAC1 the above protocol was used with the exception of coating GST Rb on the ELISA plate and adding the drugs in the presence or absence of GST E2F1, Phb, or HDAC1. E2F1 monoclonal antibody (1:2000) was used to detect the amount of Rb bound to E2F1. Prohibition monoclonal antibody was used at 1:1000 to detect the amount of Rb bound to Prohibition. For disruption of MEK-Raf-1 binding ELISAs, Raf-1 1 microgram/milliliter (μg/mL) was coated on the plate and GST-MEK (20 μg/mL) was incubated +/− the compounds for 30 minutes at room temperature. Mek1 polyclonal antibody was used at 1:1000 to detect the binding of Raf-1 to Mek1. The IC50 concentrations for the Rb:Raf-1 inhibitors were determined by plotting with Origin 7.5 software (Origin, Northampton, Mass.). In vitro binding assays. Glutathione S-transferase (GST) fusion of Rb, Raf-1, E2F1, and MEK1 have been previously described (Dasgupta P, Sun J, Wang S, et al. Mol Cell Biol 2004; 24(21):9527-9541). First, 200 micrograms (pig) of U937 asynchronous lysates were pre-incubated with 10 μM of the indicated drugs or 1 μM of the Raf-1 peptide for 30 minutes at 4° C. Next, 200 μg of the U937 lysates were incubated with glutathione beads carrying an equal amount of the GST fusion proteins in 200 μl of protein binding buffer (20 mM Tris [pH 7.5], 50 mM KCL, 0.5 mM EDTA, 1 mM dithiothreitol, 0.5% NP-40, 3 mg of bovine serum albumin/mL) at 4° C. for 2 h. (Wang S, Ghosh R, Chellappan S. Mol Cell Biol 1998; 18(12):7487-7498). Matrigel Assays. Matrigel (Collaborative Biomedical Products) was used to promote the differentiation of HAECs into capillary tube-like structures (Dasgupta P, Sun J, Wang S, et al. Mol Cell Biol 2004; 24(21):9527-9541). A total of 100 μl of thawed Matrigel was added to 96-well tissue culture plates, followed by incubation at 37° C. for 60 minutes to allow polymerization. […]
As a reminder, the inhibition is the change of the read-out against control, counted positive when it falls. As for `N#Cc1ccc(CSC(=N)NC(=N)N)cc1` [Compound 10e, (4-Cyanophenyl)methyl Amidinoisothiourea Hydrochloride], the inhibition at 20 µM is 22%. Consider `N=C(N)NC(=N)SCc1ccc(Cl)c(F)c1` [Compound 10i, (4-Chloro-3-fluorophenyl)methyl Amidinoisothiourea Hydrochloride], for which the inhibition at 20 µM was 42%.

Still in this data set, the particulars now being: class symbol **, 20 μM; read-out: Inhibition at 10 μM or 20 μM.
Take `Cl.N=C(N)NC(=N)SCc1ccc(F)cc1Cl` [Compound 10a, (2-Chloro-4-fluorophenyl)methyl Amidinoisothiourea Hydrochloride]: the inhibition at 20 µM lay within 50 to 100%. With `Cl.N=C(N)NC(=N)SCc1ccc(F)cc1F` [Compound 10b, (2,4-Difluorophenyl)methyl Amidinoisothiourea Hydrochloride], the inhibition at 20 µM was in the range of 50 to 100%. On to `Cl.N=C(N)NC(=N)SCc1ccc(Cl)cc1Cl` [Compound 10c, (2,4-Dichlorophenyl)methyl Amidinoisothiourea Hydrochloride], for which the inhibition at 20 µM fell in the range of 50 to 100%.

With `N=C(N)NC(=N)SCc1cc(Cl)ccc1Cl` [Compound 10f, (2,5-Dichlorophenyl)methyl Amidinoisothiourea Hydrochloride], the inhibition at 20 µM was in the range of 50 to 100%. Same read-out and setting: to `N=C(N)NC(=N)SCc1c(F)cccc1Cl` [Compound 10g, (2-Chloro-6-fluorophenyl)methyl Amidinoisothiourea Hydrochloride] belongs 50 to 100%; to `N=C(N)NC(=N)SCc1cc2c(cc1Cl)OCO2` [Compound 10h, (6-Chlorobenzo[d][1,3-dioxol-5-yl)methyl Amidinoisothiourea Hydrochloride], 50 to 100%.

`N=C(N)NC(=N)SCc1c(F)cccc1F` [Compound 10j, (2,6-Difluorophenyl)methyl Amidinoisothiourea Hydrochloride]: the inhibition at 20 µM was in the range of 50 to 100%.

The same data set, now with this note: class symbol +, 10 μM; read-out: Inhibition at 10 μM or 20 μM.
In the case of `Cl.N=C(N)NC(=N)SCc1ccc(Cl)cc1[N+](=O)[O-]` [Compound 10d, (2-Nitro-4-chlorophenyl)methyl Amidinoisothiourea Hydrochloride], the inhibition at 10 µM lay in the range of 25 to 50%.

Still in this data set, the particulars now being: class symbols, 10 μM; read-out: % Inhibition at 10 or 20 μM.
In the case of `N=C(N)SCc1ccc(Cl)cc1[N+](=O)[O-]` [Compound 3u, (4-Chloro-2-nitrophenyl)methyl Isothiourea Hydrochloride], the inhibition at 10 µM lay in the range of 25 to 50%. As to `N=C(N)SCc1ccc(F)cc1Cl` [Compound 3v, 2-Chloro-4-fluorophenyl)methyl isothiourea Hydrochloride], the inhibition at 10 µM was in the range of 50 to 100%.

Take `N=C(N)SCc1ccc(F)cc1F` [Compound 3w, (2,4-Difluorophenyl)methyl isothiourea Hydrochloride]: the inhibition at 10 µM was in the range of 50 to 100%.

Staying with this data set, now noted: first value of cell, concentration not printed (head: 10 μM); read-out: Inhibition at 10 μM or 20 μM.
Turning to `N#Cc1ccc(CSC(=N)NC(=N)N)cc1` [Compound 10e, (4-Cyanophenyl)methyl Amidinoisothiourea Hydrochloride], the inhibition at 10 µM was 6%. With `N=C(N)NC(=N)SCc1ccc(Cl)c(F)c1` [Compound 10i, (4-Chloro-3-fluorophenyl)methyl Amidinoisothiourea Hydrochloride], the inhibition at 10 µM was determined as 6%.

The data set is the same for the next values; noted with them: read-out: Inhibition at 10 μM.
Turning to `Cl.N=C(N)NC(=N)SCc1ccc2ccccc2c1` [Compound 11a, (2-Naphthyl)methyl Amidinoisothiourea hydrochloride], the inhibition at 10 µM lay in the range of 50 to 100%. Regarding `Cl.N=C(N)NC(=N)SCc1ccc2ccccc2c1Br` [Compound 11b, 2-(1-Bromonaphthyl)methyl amidinoisothiourea hydrochloride], the inhibition at 10 µM was 50 to 100%.

The same data set, now with this note: read-out: inhibition of the Rb:Raf-1 interaction.
For `N=C(N)SCc1ccc(Cl)cc1Cl` [Compound 1, reference compound], the inhibition at 20 µM is 100%. With `N=C(N)SCc1ccc(Cl)c2ccccc12` [Compound 2, reference compound], the inhibition at 20 µM worked out at 95%.

The subject of a further data set is A549 cells lacking Raf-1 (sh-13B). In words: BrdU incorporation, A549 cells lacking Raf-1. The data set is classed as cell-based, human. As to conditions: 20 μM. The procedure: A549 cells lacking Raf-1 (sh-13B) were generated by stably transfecting a shRNA to Raf-1. Control cells were generated by stably transfecting A549 cells with a control shRNA. The cells were incubated in the presence or absence of compounds 3a, 10b and 10c (20 μM) and S-phase entry was assessed by measuring BrdU incorporation. Relative to controls incubated in the absence of compound, proliferation of the cells with control shRNA (having Raf-1) was inhibited by each of the compounds. In contrast, proliferation of the cells lacking Raf-1 (the cells transfected with Raf-inhibitory shRNA) was not inhibited by the compound. This experiment provides evidence that inhibition of cell proliferation by compounds of the invention is mediated by Raf-1 […].
(In general: Uptake of a labelled nucleoside into DNA is a usual measure of proliferation.)
With `Cl.N=C(N)SCc1ccc(Cl)cc1Cl` [Compound 3a, (2,4-Dichlorophenyl)methyl Isothiourea Hydrochloride], the “proliferation (S-phase entry, BrdU incorporation)” value is reported as “not inhibited”. On the same count and under the same terms, to `Cl.N=C(N)NC(=N)SCc1ccc(F)cc1F` [Compound 10b, (2,4-Difluorophenyl)methyl Amidinoisothiourea Hydrochloride] belongs “not inhibited”; to `Cl.N=C(N)NC(=N)SCc1ccc(Cl)cc1Cl` [Compound 10c, (2,4-Dichlorophenyl)methyl Amidinoisothiourea Hydrochloride], “not inhibited”.

Tested on in a further data set: not given
Assay: not given
Settings: not given
For orientation: melting point means the temperature, or range, at which the solid turns liquid. The compound `Cl.N=C(N)NC(=N)SCc1ccc(F)cc1Cl` [Compound 10a, (2-Chloro-4-fluorophenyl)methyl Amidinoisothiourea Hydrochloride] came in with a melting point of 154 to 156 °C. Same read-out and setting: to `Cl.N=C(N)NC(=N)SCc1ccc(F)cc1F` [Compound 10b, (2,4-Difluorophenyl)methyl Amidinoisothiourea Hydrochloride] belongs 144 to 146 °C; to `Cl.N=C(N)NC(=N)SCc1ccc(Cl)cc1Cl` [Compound 10c, (2,4-Dichlorophenyl)methyl Amidinoisothiourea Hydrochloride], 139 to 142 °C. On to `Cl.N=C(N)NC(=N)SCc1ccc(Cl)cc1[N+](=O)[O-]` [Compound 10d, (2-Nitro-4-chlorophenyl)methyl Amidinoisothiourea Hydrochloride], for which the melting point fell in the range of 183 to 185 °C.

Take `Cl.N=C(N)NC(=N)SCc1ccc2ccccc2c1` [Compound 11a, (2-Naphthyl)methyl Amidinoisothiourea hydrochloride]: the melting point is 175 to 177 °C. Same read-out and setting: to `Cl.N=C(N)NC(=N)SCc1ccc2ccccc2c1Br` [Compound 11b, 2-(1-Bromonaphthyl)methyl amidinoisothiourea hydrochloride] belongs 160 to 162 °C.
